Assay results: patent US20050090527A1, “Combination of H1, H3 and H4 receptor antagonists for treatment of allergic and non-allergic pulmonary inflammation, congestion and allergic rhinitis” (Schering Corporation, priority 2003, published 2005)
Where two headings read alike, the source gives them in different places.

Tests used:
[1] = target: T1, human H4 (H4-HEK293 cells) (Homo sapiens, UniProt Q9H3N8); assay: Membrane binding assay, [3H]-histamine, for H4 binding
T1 construct: expressed in transfected cells
T1 sequence (Q9H3N8 whole entry): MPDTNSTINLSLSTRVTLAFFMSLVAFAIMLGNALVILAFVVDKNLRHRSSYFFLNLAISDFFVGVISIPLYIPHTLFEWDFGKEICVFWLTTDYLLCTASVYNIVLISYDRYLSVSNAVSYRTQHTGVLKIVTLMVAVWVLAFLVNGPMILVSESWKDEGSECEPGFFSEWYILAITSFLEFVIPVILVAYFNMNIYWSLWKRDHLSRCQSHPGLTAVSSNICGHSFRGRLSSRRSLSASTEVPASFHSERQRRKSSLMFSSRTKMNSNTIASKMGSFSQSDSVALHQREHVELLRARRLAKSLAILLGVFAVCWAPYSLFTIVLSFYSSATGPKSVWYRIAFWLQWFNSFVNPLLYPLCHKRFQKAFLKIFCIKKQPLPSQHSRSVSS
Method: (§1) In the present example, the affinities of several compounds for the H1, H3 and H4 receptors was determined by a membrane binding assay.
(§2) Materials. Rat and guinea-pig brains were obtained frozen from Rockland Immunochemicals (Gilbertsville, Pa.). Cell lines expressing recombinant human receptors were generated by using standard transfection techniques. The following radioligands were obtained from Dupont NEN (Boston, Mass.): [^3H]-pyrilamine, 23 Ci/mmol, for H1 binding; [^3H]-N′-methylhistamine, 82 Ci/mmol, for H3 binding and [^3H]-histamine, 20 Ci/mmol, for H4 binding.
(§3) Methods. Recombinant cell lines (i.e., human H1-CHO cells, human H3-HEK293 and human H4-HEK293 cells) were cultured in Dulbecco's modified Eagle's medium/10% fetal bovine serum supplemented with 2 mM glutamine, penicillin (100 U/ml), and streptomycin (100 μg/ml) in a humidified 5% CO2 atmosphere at 37° C. Selection was maintained with 0.5 mg geneticin/ml. Cells were harvested for membrane preparation by aspirating media, replacing it with Hanks' balanced salt solution/5 mM EDTA, and incubating flasks for 10 minutes at 37° C. Cells were pelleted by centrifugation at 1000×g for ten minutes at 4° C.
(§4) Membrane preparation. Membranes were prepared by disrupting cells or tissue in at least ten volumes of ice-cold 50 mM Tris-HCl, pH 7.5 at 25° C., with a Polytron. homogenates were centrifuged ten minutes at 1000×g and the supernatants were then centrifuged for ten minutes at 50,000×g. Pellets from this centrifugation step were resuspended with a Polytron, a sample was taken for protein determination (BCA; Pierce; Rockford, Ill.), and the resuspension was again centrifuged at 50,000×g. Brain membranes were stored as pellets, cell membranes as suspensions of 1 mg protein/ml Tris buffer at −20° C.
(§5) Binding assays. […] Assay mixtures were incubated for 30 minutes at 30° C. in polypropylene, 96-well, deep-well plates then filtered through 0.3% polyethylenimine-soaked GF/B filters. These were washed three times with 1.2 ml of Tris buffer, dried in a microwave oven, impregnated with Meltilex wax scintillant and counted at 40% efficiency in a Betaplate scintillation counter (Wallac). IC50 values were determined by interpolation or by nonlinear, least-squares, curve-fitting with the Prism program (GraphPad Software). Ki values were determined in the manner of Cheng and Prusoff (Cheng, et al., (1973) Biochem. Pharm. 22:3099-3108).

[2] = test system: LPS-induced inflammatory response in rat airways; assay: BAL cells recovered from LPS-challenged rats (pulmonary inflammation); assay type: in vivo; conditions: for Cells (neutrophils or total cells) counted in BAL of LPS-challenged rats compared with rats treated with a blank: oral dosing five hours before LPS; for % Inhibition of neutrophilic cellular influx into BAL in response to LPS challenge / % Inhibition of total cellular influx into BAL in response to LPS challenge: 10 mg/kg orally five hours before intratracheal LPS
Method: Male Sprague-Dawley rats (250-300 g) were anesthetized by inhalation of isoflurane (flow rate 1 ml/min; supplemented with O2). Using a Penn-Centry microspray needle, 0.1 ml of a 100-μg/ml LPS solution in saline was injected into the trachea. Animals not challenged with the LPS solution received 0.1 ml of saline. Animals were placed on a heat pad until they recovered from anesthesia. Afterward, they were returned to their cages and allowed food and water ad libitum. All animals survived these manipulations and no additional interventions were required to ensure their survival. Animals fasted overnight were orally dosed with either the standard PD4 inhibitor and positive-control, SB207499 (c4-cyano-4-(3-cyclopentyloxy-4-methoxy-phenyl)-r-1-cyclohexanecarboxylic acid; Barnette, et al., (1998) J. Pharm. Exp. Ther. 284: 420-426), the compound of formula 17 or vehicle as a negative-control (0.4% methylcellulose) five hours before the LPS challenge.
At appropriate time points after intratracheal challenge with LPS, animals were surgically prepared with a tracheal cannula. Surgery was performed under anesthesia. The airways were flushed with 2×2 ml of 0.9% saline and the two washings pooled. Lavage fluid was centrifuged (350 g, 4° C., 7 minutes), supernatant aspirated, erythrocytes lysed, and pellet washed in phosphate-buffered saline containing 10% heat-inactivated fetal calf serum and 10 μg/ml DNase I. The cell suspension was centrifuged, supernatant aspirated, and pellet resuspended in the same buffer. Total cell counts were performed using a Nebauer hemacytometer. Differential cell counts were conducted on Cytospin-prepared slides stained with Fisher's Leukostat stain. At least 200 cells were assessed per slide and standard morphological criteria were used to define neutrophilic cells.
The total number of cells and the number of neutrophils in the broncheoalveolar lavage (BAL) recovered from rats treated with the compound of formula 17, SB207499 or a blank were counted and compared. Fewer cells (i.e., neutrophils or total cells) were counted in the BAL of LPS-challenged rats treated with the compound of formula 17 or with SB207499 than that of rats treated with a blank. […] The data from these experiments is set forth below in Tables 6 and 7.

[3] = target: T2, human histamine H4 receptor (SP9144) (Homo sapiens, UniProt Q9H3N8); assay: Competition binding versus [3H]-histamine on membranes of SP9144-transfected HEK293 cells
T2 construct: expressed in transfected cells; host or cells: HEK293
T2 sequence (Q9H3N8 whole entry): as above
Method: Membrane preparation. Forty-eight hours after transfection with plasmid containing the sequence for SP9144, HEK293 cells were harvested from T150 flasks by incubating 5 minutes in 5 ml of 5 mM EDTA/Hanks' balanced salt solution followed by repeated pipeting. They were centrifuged 5 minutes at 1000×g. The EDTA/PBS was decanted and an equal volume of ice-cold 50 mM Tris-HCl, pH 7.5, was added and cells were broken up with a Polytron (PT10 tip, setting 5, 30 seconds). Nuclei and unbroken cells were sedimented at 1000×g for 10 minutes and then the supernatant was centrifuged at 50,000×g for 10 minutes. The supernatant was decanted, the pellet was resuspended by Polytron, a sample was taken for protein assay (bicinchoninic acid, Pierce; Rockford, Ill.), and the tissue was again centrifuged at 50,000×g. Pellets were stored frozen at −20° C.
Binding assay. […] Samples were filtered on GF/B filters and washed thrice with 2 ml of cold Tris buffer. Filters were dried in a microwave oven, impregnated with Meltilex wax scintillant, and counted at 45% efficiency.
Competition binding assays.
Curves were fit to the data with Prism (GraphPad Software) nonlinear least-squares curve-fitting program and Ki values were derived from IC50 values according to Cheng and Prusoff (Cheng, et al., (1973) Biochem. Pharm. 22:3099-3108).

[4] = target: T3, human H1 (H1-CHO cells) (Homo sapiens, UniProt P35367); assay: Membrane binding assay, [3H]-pyrilamine, for H1 binding; conditions: for H1 Ki, value given in %: concentration not given
T3 construct: expressed in transfected cells
T3 sequence (P35367 whole entry): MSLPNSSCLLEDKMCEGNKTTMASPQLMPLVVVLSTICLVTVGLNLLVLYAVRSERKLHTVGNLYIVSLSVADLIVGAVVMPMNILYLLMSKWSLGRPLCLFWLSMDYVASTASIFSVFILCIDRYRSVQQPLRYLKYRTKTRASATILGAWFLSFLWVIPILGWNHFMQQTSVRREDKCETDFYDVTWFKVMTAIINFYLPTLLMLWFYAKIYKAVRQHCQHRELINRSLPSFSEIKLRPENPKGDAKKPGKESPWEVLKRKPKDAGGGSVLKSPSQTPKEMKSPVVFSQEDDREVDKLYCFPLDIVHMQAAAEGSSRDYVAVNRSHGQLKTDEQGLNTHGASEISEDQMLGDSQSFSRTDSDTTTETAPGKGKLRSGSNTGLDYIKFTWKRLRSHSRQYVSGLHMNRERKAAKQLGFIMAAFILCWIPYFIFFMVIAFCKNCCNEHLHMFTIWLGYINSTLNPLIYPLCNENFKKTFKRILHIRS
Method: as §1, §2, §3, §4, §5

[5] = target: T4, human H3 (H3-HEK293 cells) (Homo sapiens, UniProt Q9Y5N1); assay: Membrane binding assay, [3H]-N-methylhistamine, for H3 binding; conditions: concentration not given
T4 construct: expressed in transfected cells
T4 sequence (Q9Y5N1 whole entry): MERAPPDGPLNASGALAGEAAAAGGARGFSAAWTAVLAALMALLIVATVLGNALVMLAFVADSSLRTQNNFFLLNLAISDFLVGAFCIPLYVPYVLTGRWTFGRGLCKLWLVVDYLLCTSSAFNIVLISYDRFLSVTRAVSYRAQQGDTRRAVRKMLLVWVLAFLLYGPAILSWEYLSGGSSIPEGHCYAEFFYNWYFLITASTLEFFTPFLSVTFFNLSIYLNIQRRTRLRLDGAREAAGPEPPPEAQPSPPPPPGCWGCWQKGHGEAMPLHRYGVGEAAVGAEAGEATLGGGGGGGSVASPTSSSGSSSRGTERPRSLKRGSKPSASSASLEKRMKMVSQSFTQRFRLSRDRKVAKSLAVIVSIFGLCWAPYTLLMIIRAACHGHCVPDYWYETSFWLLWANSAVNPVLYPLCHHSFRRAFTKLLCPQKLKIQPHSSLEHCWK
Method: Materials. Rat and guinea-pig brains were obtained frozen from Rockland Immunochemicals (Gilbertsville, Pa.). Cell lines expressing recombinant human receptors were generated by using standard transfection techniques.
Methods. […] Selection was maintained with 0.5 mg geneticin/ml. Cells were harvested for membrane preparation by aspirating media, replacing it with Hanks' balanced salt solution/5 mM EDTA, and incubating flasks for 10 minutes at 37° C. Cells were pelleted by centrifugation at 1000×g for ten minutes at 4° C.
Membrane preparation. […] Pellets from this centrifugation step were resuspended with a Polytron, a sample was taken for protein determination (BCA; Pierce; Rockford, Ill.), and the resuspension was again centrifuged at 50,000×g. Brain membranes were stored as pellets, cell membranes as suspensions of 1 mg protein/ml Tris buffer at −20° C.
Binding assays. […] Assay mixtures were incubated for 30 minutes at 30° C. in polypropylene, 96-well, deep-well plates then filtered through 0.3% polyethylenimine-soaked GF/B filters. These were washed three times with 1.2 ml of Tris buffer, dried in a microwave oven, impregnated with Meltilex wax scintillant and counted at 40% efficiency in a Betaplate scintillation counter (Wallac). IC50 values were determined by interpolation or by nonlinear, least-squares, curve-fitting with the Prism program (GraphPad Software).

[6] = membrane binding, [3H]-histamine, read-out: H4 Ki
[7] = 18 nM [3H]-histamine, cells printed in μM

O=C(c1ccccn1)N1CCC(Cc2c[nH]cn2)CC1 [Formula 20]
Ki [1, 6]: 0.038 µM

NC(=NCc1ccc(Cl)cc1)SCCCc1cnc[nH]1 [Formula 18]
Ki [1]: 0.034 µM

Clc1ccc(C(=C2CCN(CCCCc3c[nH]cn3)CC2)c2ccccn2)cc1 [Formula 28]
Ki [1, 6]: 0.39 µM

Clc1ccc(C(CCNCCCCc2c[nH]cn2)c2ccccn2)cc1 (stereo not shown) [Formula 30]
Ki [1, 6]: 0.48 µM

O=C(CCN1CCC(Cc2c[nH]cn2)CC1)NCCc1ccc(Cl)cc1 [Formula 25]
Ki [1, 6]: 0.3 µM

Nc1ncc(CN2CCC(F)(C(=O)N3CCC(n4c(-c5ccccn5)nc5cccnc54)CC3)CC2)cn1 [Formula 17]
Cells (neutrophils or total cells) counted in BAL of LPS-challenged rats compared with rats treated with a blank [2]: Fewer cells

C[C@@H](N)Cc1c[nH]cn1 [(R)-α-methylhistamine]
Ki [3]: 0.14 ± 0.01 µM

O=C(c1cnc2ccccc2c1)N1CCC(Cc2c[nH]cn2)CC1 [Formula 19]
% Inhibition of neutrophilic cellular influx into BAL in response to LPS challenge [2]: 71.6% | % Inhibition of total cellular influx into BAL in response to LPS challenge [2]: 64.5% | H1 Ki, value given in % [4]: 0% | Ki [1, 6]: 0.038 µM

CNCCc1c[nH]cn1 [N^α-methylhistamine]
Ki [3]: 0.063 ± 0.002 µM

O=C(NCc1ccc(Cc2c[nH]cn2)cc1)Nc1cc(Cl)cc(Cl)c1 [Formula 26]
H1 Ki, value given in % [4]: 0% | Ki [1, 6]: 0.32 µM

c1nc(CC2CCN(CCCOc3ccc(CN4CCCCC4)cc3)CC2)c[nH]1 [Formula 24]
Ki [1, 6]: 0.29 µM

NC(=NCc1ccc(Cl)cc1)SCCCc1cnc[nH]1 [Clobenpropit]
Ki [3]: 0.0072 ± 0.0005 µM

O=C(CCN1CCC(Cc2c[nH]cn2)CC1)Nc1cccc(Cl)c1 [Formula 22]
Ki [1, 6]: 0.092 µM

CC(C)(C)CCC#C[C@@H]1C[C@H]1c1c[nH]cn1 [Formula 21]
Ki [1, 6]: 0.09 µM

CC(C)(C)c1ccc(S(=O)(=O)NCCCCc2c[nH]cn2)cc1 [Formula 32]
H1 Ki, value given in % [4]: 32% | Ki [1, 6]: 0.85 µM

CN(C)CCC(c1ccc(Cl)cc1)c1ccccn1 (stereo not shown) [Chlorpheniramine]
Ki [3, 7]: > 10 µM

C[C@H](N)Cc1c[nH]cn1 [(S)-α-methylhistamine]
Ki [3]: 3.4 ± 0.3 µM

COc1ccc([C@]2(C#N)CC[C@@H](C(=O)O)CC2)cc1OC1CCCC1 [SB207499, c4-cyano-4-(3-cyclopentyloxy-4-methoxy-phenyl)-r-1-cyclohexanecarboxylic acid, reference compound]
% Inhibition of neutrophilic cellular influx into BAL in response to LPS challenge [2]: 68.7% | % Inhibition of total cellular influx into BAL in response to LPS challenge [2]: 61.2% | Cells (neutrophils or total cells) counted in BAL of LPS-challenged rats compared with rats treated with a blank [2]: Fewer cells

O=S(=O)(c1ccc(Cl)cc1)N1CCC(CCc2c[nH]cn2)C1 (stereo not shown) [Formula 23]
Ki [1, 6]: 0.205 µM

N=C(N)SCCc1cnc[nH]1 [Imetit]
Ki [3]: 0.0031 ± 0.0007 µM

CC(C)(C(=O)O)c1ccc(C(=O)CCCN2CCC(OC(c3ccccc3)c3ccccc3)CC2)cc1 [Formula 36]
H3 Ki column, value given in % [5]: 1% | Ki ([4]; membrane binding, [3H]-pyrilamine): 0.015 µM | H4 Ki column, value given in % ([1]; concentration not given): 2%

CN(C)CCCSC(=N)N [Dimaprit]
Ki ([3]; read-out: Ki ± SEM versus [3H]histamine binding to SP9144-transfected HEK293 cells, 18 nM [3H]-histamine, 70 μg membrane protein, Ki from IC50 by Cheng and Prusoff): 0.38 ± 0.07 µM

C/C(=C\C(=O)Nc1ccc(Cl)cc1)c1ccc(Cc2c[nH]cn2)cc1 [Formula 33]
Ki [1, 6]: 0.87 µM

Clc1ccc(C(=C2CCN(CCCCCc3c[nH]cn3)CC2)c2ccccn2)cc1 [Formula 31]
Ki [1, 6]: 0.77 µM

O=C(/C=C/c1ccc(Cc2c[nH]cn2)cc1)NCCc1ccc(Cl)cc1 [Formula 35]
H1 Ki, value given in % [4]: 0% | Ki [1, 6]: 1.1 µM

CN/C(=N/CCSCc1nc[nH]c1C)NC#N [Cimetidine]
Ki [3, 7]: > 10 µM

CN1CCC(N(C)Cc2ccc(OCCCN3CCC(Cc4c[nH]cn4)CC3)cc2)CC1 [Formula 27]
Ki [1, 6]: 0.325 µM

c1ccc2c(c1)C1CC(CNCCCCc3c[nH]cn3)C2c2ccccc21 (stereo not shown) [Formula 29]
Ki [1, 6]: 0.44 µM

O=C(NCCCCc1c[nH]cn1)C1(c2ccc(Cl)cc2)CCC1 [Formula 34]
H1 Ki, value given in % [4]: 48% | Ki [1, 6]: 1.1 µM
